Data set [1] in a line: Solubility of the compound in DMSO. The format is physicochemical.
In data set [2] the target is T1, Adenosine 5'-monophosphoramidase HINT1 (Homo sapiens, UniProt P49773). The data set can be described thus: Binding affinity to full-length human N-terminal His6-tagged Hint1 expressed in Escherichia coli Rosetta 2 pLysS cells by isothermal titration calorimetry.
For data set [3], the system named is Mus musculus. Kind of data set: Effect on spared nerve injury-induced ICR mouse model of neuropathic pain administered intrathecally for 3 days by Von Frey test. The format is functional. The conditions noted are these: central, 72 h.
Data set [4] concerns Mus musculus. The data set can be described thus: Suppression of morphine-induced analgesic tolerance in ICR mouse model of spared nerve injury-induced neuropathic pain assessed as reduction in mechanical hypersensitivity administered intrathecally for 3 days prior to morphine challenge on day 4 by Von Frey test. The format is functional. The note with it: central.
The nature of data set [5]: Aqueous solubility of the compound. Format: physicochemical. The conditions noted are these: buffer.
Data set [6] relates to Mus musculus. The data set can be described thus: Effect on spared nerve injury-induced ICR mouse model of neuropathic pain administered intrathecally for 3 days by Von Frey test relative to control. Format: functional.
Data set [7] has as its system Mus musculus. Kind of data set: Suppression of morphine-induced analgesic tolerance in ICR mouse model of spared nerve injury-induced neuropathic pain assessed as reduction in mechanical hypersensitivity administered intrathecally for 3 days prior to morphine challenge on day 4 by Von Frey test relative to control. Format: functional.
Data set [8] in a line: Solubility of the compound in water. Format: physicochemical. The note with it: buffer.
Data set [9] deals with T1, Adenosine 5'-monophosphoramidase HINT1. The data set can be described thus: Inhibition of human N-terminal His6-tagged Hint1 expressed in Escherichia coli Rosetta 2 pLysS cells by fluorescence assay.

The term Kd denotes a measure of binding affinity in units of concentration. Usually ED50 stands for the dose at which the effect has come halfway, by size or by number of responders. In general, IC50 refers to the point on the concentration scale where inhibition reaches its midpoint. Low values mean greater potency in that assay, high ones weaker potency in that assay.

T1 sequence (P49773 whole entry): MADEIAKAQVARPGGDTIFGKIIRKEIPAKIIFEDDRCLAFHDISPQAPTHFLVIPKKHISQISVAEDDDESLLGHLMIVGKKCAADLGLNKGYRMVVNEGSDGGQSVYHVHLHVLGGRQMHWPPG

Turning to `Nc1nc2c(ncn2[C@@H]2O[C@H](COC(=O)NCCc3c[nH]cn3)[C@@H](O)[C@H]2O)c(=O)[nH]1`, the solubility result in data set [1] was “Soluble”. For the same molecule, the dissociation constant Kd in data set [2] was found to be 3.43 µM. Turning to `O=C(CCc1c[nH]c2ccccc12)NS(=O)(=O)OC[C@H]1O[C@@H](n2cnc3c2ncn2ccnc32)[C@@H](O)C1O` (stereo partly specified), the figures for the median effective dose (ED50) in [3] and in data set [4] were 3.6 mg/kg and 4.6 mg/kg, respectively. Further, in data set [5], the solubility result is “Soluble”. As to `CCNC(=O)OC[C@H]1O[C@@H](n2cnc3c(N)nc(N)nc32)[C@H](O)[C@@H]1O`, the solubility result in [1] is listed as “Soluble”. Moreover, in data set [2], the dissociation constant Kd amounted to 2.45 µM. With `Nc1nc2c(ncn2[C@@H]2O[C@H](COC(=O)NCCc3c[nH]c4ccccc34)[C@@H](O)[C@H]2O)c(=O)[nH]1`, the ED50 was determined as 2.3 mg/kg in [3] and 2.6 mg/kg in [4]. Moreover, the “fold change (FC)” value is reported as 0.7 in data set [6] and 0.8 in data set [7]. In data set [1], the solubility result is listed as “Soluble”. Turning to `Nc1nc2c(ncn2[C@@H]2O[C@H](COP(=O)(O)NCCc3c[nH]c4ccccc34)[C@@H](O)[C@H]2O)c(=O)[nH]1`, the solubility result in data set [5] is reported as “Soluble”. With `CCN(CC)C(=O)OC[C@H]1O[C@@H](n2cnc3c(=O)[nH]c(N)nc32)[C@H](O)[C@@H]1O`, in data set [1], the solubility result is recorded as “Soluble”. This molecule also showed a Kd in data set [2] of 47.2 µM. With `Nc1nc2c(ncn2[C@@H]2O[C@H](CNS(=O)(=O)NC(=O)CCc3c[nH]c4ccccc34)[C@@H](O)[C@H]2O)c(=O)[nH]1`, in data set [5], the solubility result was “Soluble”.

As for `Nc1nc2c([C@@H]3O[C@H](COS(=O)(=O)NC(=O)CCc4c[nH]c5ccccc45)[C@@H](O)[C@H]3O)scc2c(=O)[nH]1`, in data set [8], the solubility entry is on record as “Soluble”. The equilibrium dissociation constant (Kd) in data set [2] was 5.2 µM. As for `Nc1ncnc2c1ncn2[C@@H]1O[C@H](CNS(=O)(=O)NC(=O)CCCC[C@@H]2SC[C@@H]3NC(=O)N[C@@H]32)[C@@H](O)[C@H]1O`, the IC50 in data set [9] worked out at 25.5 µM. `Nc1nc2c(ncn2[C@@H]2O[C@H](COC(=O)NCc3ccccc3)[C@@H](O)[C@H]2O)c(=O)[nH]1`: the solubility result in [1] is on record as “Insoluble”. In data set [2], this molecule displayed a Kd of 8.09 µM. Turning to `Nc1nc2c(ncn2C2OC(COS(=O)(=O)NC(=O)CCc3c[nH]c4ccccc34)C(O)C2O)c(=O)[nH]1` (single isomer, unassigned), the solubility result in data set [5] is “Soluble”. As for `Nc1nc2c(ncn2[C@@H]2O[C@H](COP(=O)(O)O)[C@@H](O)[C@H]2O)c(=O)[nH]1`, the affinity in data set [2], expressed as Kd, was 67 µM. On to `Nc1nc(N)c2ncn([C@@H]3O[C@H](COC(=O)Nc4ccccc4)[C@@H](O)[C@H]3O)c2n1`, for which, in data set [1], the solubility result was “Soluble”. The molecule further came in with a Kd in data set [2] of 1.01 µM. Consider `Nc1nc2c(ncn2[C@@H]2O[C@H](CSP(=O)(O)NCCc3c[nH]c4ccccc34)[C@@H](O)[C@H]2O)c(=O)[nH]1`, for which, in [8], the solubility entry is reported as “Soluble”.
